Laboratory results from patent US20040158036A1, “Neuritogenic compound and uses thereof” (priority 2004, published 2004).
“Also recorded” adds a separate entry of the source. Where two headings read alike, the source gives them in different places. Ends that are not written are not given here.

Key:
explanted DRG [1] = assay: Neurite outgrowth from explanted DRG cultures (Example 3); assay type: cell-based, C57/B16 mice; details: for neurite outgrowth relative to non-treated cultures / INGAP peptide-stimulated neurite outgrowth after preincubation with anti-NGF antibody: INGAP peptide 1000 ng/mL; for neurite outgrowth relative to non-treated cultures: NGF 50 ng/mL, 17-β-estradiol 10 nM, 4 and 7 days; for overall length and density of neurite outgrowth vs non-treated DRG: 4 days in culture; for neurite outgrowth in combination with 17-β-estradiol vs either drug alone: INGAP peptide 1000 ng/mL + 17-β-estradiol 10 nM; for neurite outgrowth in combination with NGF vs INGAP peptide alone: INGAP peptide 1000 ng/mL + NGF 50 ng/mL; for INGAP peptide-stimulated neurite outgrowth after preincubation with anti-NGF antibody: cultures pre-incubated with anti-NGF antibody
Protocol: (§1) DRG (L3, L4, L5) were dissected from wild-type C57/B16 mice <, and DRG explants were cultured in […] of Matrigel at 37° C. (5% CO2) for 24 h in phenol-red free RPMI 1640 media-free supplemented with 1% penicillin/streptomycin. Neurite outgrowth was followed for 7 days and was visualized with an OLYMPUS™ BX51 system microscope equipped with a Dage-MTI CCD300-RC camera coupled to a Powermate™ 8100 Pentium™III computer (NEC Corp.) with 128 MB RAM. Bright-field microscope images were stored in uncompressed tagged image file format (TIFF) at a resolution of 600 d.p.i. and analyzed using MCID-M5+5.1 image analysis software (Imaging Research Inc.) and SYSTAT 9 statistical software (SPSS Inc.).
(§2) In all experiments, statistical significance was determined using one-way ANOVA and post-hoc Dunnett's test. The experimental group size was n=4-5, and differences were considered significant where P<0.05.

[2] = system: dorsal route ganglia (DRG) explant cultures; assay: Neurite outgrowth in DRG explant cultures (Example 1); assay type: cell-based, male C57BL/6 mice; details: DRG explants
Protocol: Using male C57BL/6 mice, dorsal route ganglia (DRG) explant cultures were established to examine the effect of the INGAP peptide of the present invention on neurite outgrowth (FIG. 1). DRG (L3, L4) were dissected from male C57BL/6 mice, and DRG explants were cultured in 14 uL of Matrigel in 2 ml of RPMI 1640 media+1% antibiotic.

DRG explant cultures = assay: MTT assay of DRG cell viability (Example 2); assay type: cell-based, Balb/C mice
Protocol: Using DRG explant cultures, we examined the effects of the INGAP peptide of the present invention, as well as other agents, on DRG cell viability using the MTT assay (FIG. 2). DRG (L3, L4) were dissected from Balb/C mice, and DRG explants were cultured in 14 uL of Matrigel in 2 ml of RPMI 1640 media+1% antibiotic. After 48 hours, INGAP, β-estradiol, and/or FK506 were added to the explant cultures as indicated. MTT assay was performed 7 days after the addition of drugs. Data were analyzed using one-way ANOVA with post-hoc Tuckey” test. Differences were consider significant where p<0.05. (n=3-4 per treatment group).

explanted DRG [3] = assay: MTT assay, mitochondrial activity in explanted DRG (Example 3); assay type: cell-based, C57/B16 mice
Protocol: as §1
For cell viability assays, MTT was dissolved in phosphate buffered saline (1.9 mM NaH2PO4, 8.1 mM Na2HPO4, 154 mM NaCl) and applied to DRG explant cultures at a concentration of 1.2 mM for 2 h at (37° C., 5% CO2). Media were then aspirated, and each DRG explant was incubated in […] of DMSO for 1 h. […] of DMSO from each explant was transferred to a 96-well plate and absorbance at 595 nm was read on a Bio-Rad Benchmark plate reader.
as §2

DRG explants = assay: [3H]thymidine incorporation in DRG explants (Example 3); assay type: cell-based, C57/B16 mice; details: 4 days in culture; for [3H] thymidine incorporation relative to non-treated controls: 100 ng/mL
Protocol: as §1
For [3H]thymidine incorporation assays, serum-starved DRG ex-plants cultured in Matrigel were exposed to Ingap (100-1000 ng/mL) for 48 h. 1 p Ci/ml of [3H]thymidine was added to each DRG and kept for an additional 48 h, after which time the DRG were washed four times with ice-cold trichloroacetic acid (10%). Ganglia were lysed on ice in 100pL of tissue solubilizer (NCS-II, Amersham). Lysates were transferred to individual 4 mL scintillation counting vials, and 4 mL of liquid scintillation counting cocktail (Fischer SX25-5 ScintiSafe Plus 50%) was added to each lysate. Counting was performed on a Wallac 1410 liquid scintillation counter.
as §2

[4] = system: cells associated with the ductal epithelium; details: normal, adult mouse; cited from earlier work
[5] = system: cells associated with the ductal epithelium; details: normal, adult hamster; cited from earlier work

Question: With `C[C@]12CC[C@@H]3c4ccc(O)cc4CC[C@H]3[C@@H]1CC[C@@H]2O` [17-β-estradiol, reference compound] as the compound, how does the “neurite outgrowth relative to non-treated cultures” value (explanted DRG [1]) read?
Answer: Its value is “strong neurite outgrowth”.

Question: For “GLHDPSHGTLPNGSG [15-amino-acid fragment (amino acids 104-118) of Islet Neogenesis Associated Protein]”, which “neurite-promoting effect compared with nerve growth factor (NGF)” value [2] is on record?
Answer: The value was “comparable”.

Question: What about the neurite-promoting effect ([2]; FIG. 1) of the same compound?
Answer: The neurite-promoting effect was “effective, in a dose-dependent fashion, as a neurite-promoting agent”.

Question: What about the “MTT reduction (cell viability)” value (DRG explant cultures; doses 100 ng/mL to 1,500 ng/mL, MTT 7 days after addition of drugs) of the same compound?
Answer: Its value is “tremendous increase in MTT reduction”.

Question: What about the “dose of maximal effect on MTT reduction” value (DRG explant cultures; no significant change with 1000 or 1,500 ng/mL) of the same compound?
Answer: The value was 500 ng/mL.

Question: What about the “neurite outgrowth vs non-treated DRG” value (explanted DRG [1]; 100 ng/mL, any time point examined) of the same compound?
Answer: The value was “No effects”.

Question: And the “neurite outgrowth vs non-treated DRG” value (explanted DRG [1]; 100 ng/mL, any time point examined, listed as INGAP)?
Answer: The value was “did not have a significant effect”.

Question: And the “overall length and density of neurite outgrowth vs non-treated DRG” value (explanted DRG [1]; 500 ng/mL, listed as INGAP)?
Answer: The value was “significant enhancement”.

Question: What about the “overall length and density of neurite outgrowth vs non-treated DRG” value (explanted DRG [1]; 500 ng/mL) of the same compound?
Answer: Its value is “Significant effects”.

Question: What about the “neurite outgrowth vs non-treated DRG” value (explanted DRG [1]; 1000 ng/mL, 7 days in culture) of the same compound?
Answer: The value was “continued to significantly enhance neurite outgrowth”.

Question: And the “overall length and density of neurite outgrowth vs non-treated DRG” value (explanted DRG [1]; 1000 ng/mL)?
Answer: Its value is “Significant effects”.

Question: What about the “overall length and density of neurite outgrowth vs non-treated DRG” value (explanted DRG [1]; 1000 ng/mL, listed as INGAP) of the same compound?
Answer: Its value is “significant enhancement”.

Question: What about the “neurite outgrowth vs non-treated DRG” value (explanted DRG [1]; 24 h, regardless of the drug concentration) of the same compound?
Answer: The value was “no significant differences”.

Question: What about the “optimal dose for neurite outgrowth” value (explanted DRG [1]; DRG explants) of the same compound?
Answer: Its value is 1000 ng/mL.

Question: And the “neurite outgrowth in combination with 17-β-estradiol vs either drug alone” value (explanted DRG [1])?
Answer: Its value is “No significant enhancement”.

Question: What about the “neurite outgrowth in combination with 17-β-estradiol vs either drug alone” value (explanted DRG [1]; listed as INGAP) of the same compound?
Answer: The value was “not significantly different”.

Question: What about the “neurite outgrowth in combination with NGF vs INGAP peptide alone” value (explanted DRG [1]) of the same compound?
Answer: The value was “enhances neurite outgrowth”.

Question: What about the “neurite outgrowth in combination with NGF vs INGAP peptide alone” value (explanted DRG [1]; listed as INGAP) of the same compound?
Answer: Its value is “Enhanced effects on neurite outgrowth”.

Question: And the “neurite outgrowth relative to non-treated cultures” value (explanted DRG [1])?
Answer: The value was “strong neurite outgrowth; also recorded: stimulates neurite outgrowth from the DRG explants, to an extent similar to that of the prototypical growth factor”.

Question: What about the “neurite outgrowth relative to non-treated cultures” value (explanted DRG [1]; listed as INGAP) of the same compound?
Answer: Its value is “stimulates neurite outgrowth to an extent similar to that of NGF”.

Question: What about the “INGAP peptide-stimulated neurite outgrowth after preincubation with anti-NGF antibody” value (explanted DRG [1]) of the same compound?
Answer: Its value is “marked reduction”.

Question: And the “INGAP peptide-stimulated neurite outgrowth after preincubation with anti-NGF antibody” value (explanted DRG [1]; listed as INGAP)?
Answer: Its value is “strong reduction”.

Question: What about the “mitochondrial activity (MTT reduction) vs non-treated controls” value (explanted DRG [3]; 1000 ng/mL, 4 days in culture) of the same compound?
Answer: Its value is “significant increase in mitochondrial activity”.

Question: And the “mitochondrial activity (MTT reduction) vs non-treated controls” value (explanted DRG [3]; 1000 ng/mL, 4 days in culture, listed as INGAP)?
Answer: The value was “significantly larger MTT reduction”.

Question: What about the “mitochondrial activity (MTT reduction) vs non-treated controls” value (explanted DRG [3]; 100, 500, 1000 ng/mL, 24 h in culture) of the same compound?
Answer: Its value is “no significant effects”.

Question: What about the “mitochondrial activity (MTT reduction) vs non-treated controls” value (explanted DRG [3]; 100, 500, 1000 ng/mL, 24 h in culture, listed as INGAP) of the same compound?
Answer: The value was “no significant effect”.

Question: What about the “mitochondrial activity (MTT reduction) vs non-treated controls” value (explanted DRG [3]; 500 and 1000 ng/mL, 7 days in culture, P>0.05) of the same compound?
Answer: Its value is “trend toward enhanced cell viability”.

Question: And the “[3H] thymidine incorporation relative to non-treated controls” value (DRG explants)?
Answer: The value was “no significant effects”.

Question: What about the “[3H] thymidine incorporation relative to non-treated controls” value (DRG explants; listed as INGAP) of the same compound?
Answer: The value was “no significant effect”.

Question: And the “increase in [3H] thymidine incorporation relative to non-treated controls” value (DRG explants; 500 ng/mL)?
Answer: The value was 3 fold.

Question: And the “islet-cell neogenesis, new islet formation” value [4]?
Answer: Its value is “potent inducer of islet-cell neogenesis”.

Question: And the “islet-cell neogenesis, new islet formation” value [5]?
Answer: The value was “potent inducer of islet-cell neogenesis”.

Question: For “NGF: conventional neurotrophic agent, nerve growth factor [reference compound]”, which “neurite outgrowth relative to non-treated cultures” value (explanted DRG [1]) is on record?
Answer: Its value is “strong neurite outgrowth”.
